Measurements reported in PubChem BioAssay AID1508603 (National Center for Advancing Translational Sciences (NCATS), 2020).

The compounds below were run on human liver cytosol stability, half-life (assay: NCATS Human Liver Cytosol Stability Profiling). Details: higher = more stable.
Experimental: Assay submitter (PI): Pranav Shah Ph.D.
NIH Center for Advancing Translational Sciences
Over the last few decades, chemists have become skilled at designing compounds that avoid cytochrome P (CYP) 450 mediated metabolism. Typical screening assays are performed in liver microsomal fractions and it is possible to overlook the contribution of cytosolic enzymes until much later in the drug discovery process. Few data exist on cytosolic enzyme-mediated metabolism and no reliable tools are available to chemists to help design away from such liabilities. In this study, we screened 1450 compounds for liver cytosol-mediated metabolic stability and extracted transformation rules that might help medicinal chemists in optimizing compounds with these liabilities. […] Matched molecular pairs analysis was performed in conjunction with qualitative-structure activity relationship modeling to identify chemical structure transformations affecting cytosolic stability. The transformation rules were prospectively validated on the test set. In addition, selected rules were validated on a diverse chemical library and the resulting pairs were experimentally tested to confirm whether the identified transformations could be generalized. The validation results, comprising nearly 250 library compounds and corresponding half-life data, are made publicly available. The datasets were also used to generate in silico classification models, based on different molecular descriptors and machine learning methods, to predict cytosol-mediated liabilities. To the best of our knowledge, this is the first systematic in silico effort to address cytosolic enzyme-mediated liabilities (Shah 2020).
Shah, P., Siramshetty, V.B., Zakharov, A.V. et al. Predicting liver cytosol stability of small molecules. J Cheminform 12, 21 (2020). https://doi.org/10.1186/s13321-020-00426-7
Compounds are classified as unstable (t 1/2 < 30 min) or stable (t 1/2 > 30 min).
1. Shah, P. et al. An Automated High-Throughput Metabolic Stability Assay Using an Integrated High-Resolution Accurate Mass Method and Automated Data Analysis Software. Drug Metab Dispos 44, 1653-1661 (2016). PMID 27417180
For COCCNc1nc(N)nc2c1CCN(C(=O)c1cscn1)CC2, the half-life was over 2 h.
Work on Fc1cccc(-c2cnc([C@@H]3COCCN3Cc3cnc[nH]3)[nH]2)c1 yielded a half-life of 0.988 h.
For CN(Cc1ccccc1)C1CCOc2ccccc21 (stereo not given), the half-life was 0.127 h.
COc1ccccc1CN1CCC2(CC1)CC(O)CCO2 (stereo not given) showed a half-life of over 2 h.
Compound CCOc1cc(=O)n2c(c1C(=O)Nc1ccc(C#N)cc1)CCCC2 has a half-life of 1.69 h.
For COc1ccc(C(=O)N2CCC3(CCC3OC)CC2)cc1 (stereo not given), the half-life was 1.17 h.
Compound CN1CCOC2(CCN(Cc3cccc(C#N)c3)CC2)C1=O has a half-life of over 2 h.
Compound N#Cc1cccc(-c2cn3c(n2)N(C(=O)c2cccs2)CCC3)c1 has a half-life of over 2 h.
Compound N#Cc1ccc(CN2CCC(N3CCNC3=O)CC2)cc1 has a half-life of 1.55 h.
With CN(CC1CCOC1)C(=O)Nc1ccccc1 (stereo not given) the half-life was over 2 h.
In the case of COc1ccc(-c2[nH]nc3ncc(-c4cccc(F)c4)nc23)c(C)c1, the half-life is reported as 1.26 h.
In the case of COc1ccc(CN2CCC(N3CCOC3=O)CC2)cc1, the half-life is reported as over 2 h.
In the case of Cc1cc2cc(-c3c(C)noc3C)nc(Nc3cccc(F)c3)c2o1, the half-life is reported as 0.137 h.
O=C(N1CCN(S(=O)(=O)c2cccc(F)c2)CC1)N1CC2CC(C1)[C@H]1CCCC(=O)N1C2 (stereo not given in full) gave a half-life of over 2 h.
COc1ccc(CN2CC(Oc3ccc(F)c(C)c3)C2)cc1 was tested, and the half-life was 0.36 h.
Compound COc1ccc(CN2CCC(N3Cc4cccn4C3=O)CC2)cc1 has a half-life of over 2 h.
Work on COc1cncc(Nc2ncc(-c3cccc(F)c3)c3c2OCC3)c1 yielded a half-life of 1.34 h.
COCCOC1CCN(C(=O)Nc2ccccc2)CC1 gave a half-life of over 2 h.
In the case of Cc1noc(-c2cn(C3CCN(C(=O)c4cccc(F)c4)C3)nn2)n1 (stereo not given), the half-life is reported as over 2 h.
N#Cc1ccc(C(=O)N2CCCOCCNC(=O)CC2)cc1 showed a half-life of over 2 h.
In the case of N#Cc1cccc(CN2CC(COc3ccccc3)C3(C2)CN(c2ccccc2)C3)c1 (stereo not given), the half-life is reported as 0.693 h.
In the case of CCN1CCN(C(=O)c2nc3sccn3c2-c2cccc(C#N)c2)CC1, the half-life is reported as over 2 h.
With Cc1cc(F)ccc1OC1CN(Cc2ccc(C#N)cc2)C1 the half-life was 0.59 h.
Work on N#Cc1cccc(-c2cn3c(n2)N(C(=O)c2ccco2)CCC3)c1 yielded a half-life of 0.612 h.
COc1cccc(CN2CCOC[C@H](O)C2)c1 gave a half-life of 0.47 h.
In the case of Cc1nnc([C@H]2CCN(Cc3ccc(C#N)cc3)C2)o1, the half-life is reported as over 2 h.
COc1ccc(C(=O)N2CCCOCCNC(=O)CC2)cc1 gave a half-life of 1.17 h.
Compound CN1CCN(C(=O)c2ccc3nccn3c2)CC1 has a half-life of over 2 h.
With COC(=O)[C@@H]1Cc2ncn(C)c2CN1C(=O)c1ccc(C#N)cc1 the half-life was over 2 h.
CN1CCN(C(=O)c2cc(-c3cccnc3)nc3c2cnn3C)CC1 showed a half-life of over 2 h.
Work on Cn1ccc(NC(=O)c2ccc(-c3ncc4cnc(-c5cccc(F)c5)cn34)cc2)n1 yielded a half-life of 0.553 h.
Compound CC1(c2ccccc2)N(Cc2ccccc2)C(=O)OC12CCN(Cc1cccc(C#N)c1)CC2 (stereo not given) has a half-life of over 2 h.
With N#Cc1ccc(CN2CCC3(COc4ccccc4C(=O)N3)C2)cc1 (stereo not given) the half-life was 0.64 h.
In the case of CCN1CCN(C(=O)c2cc(-c3ccc(F)cc3)nc3c2cnn3C)CC1, the half-life is reported as over 2 h.
For Cc1cc(OC2CN(Cc3ccc(C#N)cc3)C2)ccc1F, the half-life was 0.73 h.
In the case of Fc1cccc(Nc2ncc(-c3cncnc3)c3c2OCC3)c1, the half-life is reported as over 2 h.
With Cc1noc(-c2cn(C3CCN(C(=O)c4ccccc4)C3)nn2)n1 (stereo not given) the half-life was over 2 h.
Work on O=C(O)c1ccc(CN2CC(COc3ccccc3)C3(C2)CN(c2ccccc2)C3)cc1 (stereo not given) yielded a half-life of over 2 h.
Compound CC(C)CN1C(=O)c2cccn2CC1C(=O)N1CCN(C)CC1 (stereo not given) has a half-life of 1.79 h.
O=C(O)c1ccc(-c2ncc3cnc(-c4cccc(F)c4)cn23)cc1 showed a half-life of over 2 h.
O=C(Nc1ncc(-c2cccc(F)c2)c2c1OCC2)c1ccncc1 was tested, and the half-life was over 2 h.
O=C(c1cccc(F)c1)N1CCC(Oc2cccnc2)C1 (stereo not given) gave a half-life of over 2 h.
For O=C1COCCN1c1cc(-c2cccc(F)c2)cn2cncc12, the half-life was over 2 h.
Work on N#Cc1ccc(CN2CC(Oc3ccc(F)c(F)c3)C2)cc1 yielded a half-life of 1.19 h.
Work on N#Cc1ccnc(-c2nnc3ccc(NCc4cnccn4)nn23)c1 yielded a half-life of over 2 h.
With N#Cc1ccc(CN2CC(N3CCc4ccccc43)C2)cc1 the half-life was 1.61 h.
O=c1c2nc(Nc3cccc(F)c3)ccc2ncn1-c1cccnc1 gave a half-life of 1.61 h.
CN1c2cc(C(=O)Nc3ccc(S(N)(=O)=O)cc3)ccc2C(=O)N2CCCCC21 (stereo not given) showed a half-life of over 2 h.
For N#Cc1cccc(CN2CCOC[C@H]2c2ncc(-c3ccc(F)cc3)[nH]2)c1, the half-life was 1.58 h.
Work on CCN1CCN(C(=O)c2cc(-c3ccccc3OC)c3nncn3n2)CC1 yielded a half-life of over 2 h.
For O=C(O)c1ccc(CN2CCOC[C@H]2c2ncc(-c3ccc(F)cc3)[nH]2)cc1, the half-life was over 2 h.
CCN1CCN(C(=O)C2Cn3cccc3C(=O)N2CC(C)C)CC1 (stereo not given) showed a half-life of over 2 h.
In the case of CN1CCN(C(=O)Cc2cccn2-c2ccc(F)cc2)CC1, the half-life is reported as over 2 h.
For N#Cc1ccc(C(=O)N2CCOC[C@H](Oc3cnccn3)C2)cc1, the half-life was over 2 h.
In the case of Fc1cccc(-c2cnc(Nc3cncnc3)c3c2CCO3)c1, the half-life is reported as 0.16 h.
Work on Cc1ccc(NC(=O)c2nc3sccn3c2-c2cccc(C#N)c2)cc1 yielded a half-life of 0.29 h.
With COc1cccc(-c2c(C(=O)N3CCCCC3)nc3sccn23)c1 the half-life was 1.9 h.
With O=C(c1ccncc1)N1CCC(Oc2cccc(F)c2)C1 (stereo not given) the half-life was over 2 h.
In the case of COc1cccc(-c2c(C(=O)Nc3ccc(C)cc3)nc3sccn23)c1, the half-life is reported as 1.55 h.
CCOCCOC1CCN(C(=O)Nc2cccc(F)c2)CC1 gave a half-life of over 2 h.
COc1ccc(CN2CCC3(C2)NC(=O)c2ccccc2O3)cc1 (stereo not given) showed a half-life of over 2 h.
CNC(=O)[C@@H]1CN(C(=O)c2cccc(C#N)c2)C[C@H]1COC gave a half-life of 1.44 h.
In the case of CCN1CCN(C(=O)Cc2cccn2-c2ccc(F)cc2)CC1, the half-life is reported as over 2 h.
O=C(Nc1cnc(-c2ccccc2)nc1)c1cccc(F)c1 was tested, and the half-life was 0.867 h.
Compound COCCOC1CCN(C(=O)Nc2cccc(F)c2)CC1 has a half-life of over 2 h.
For Fc1cccc(Nc2ncc(-c3cccnc3)c3c2OCC3)c1, the half-life was 1.28 h.
With COc1ccc(CN2CC(Oc3ccc(F)cc3C)C2)cc1 the half-life was 0.35 h.
For COc1ccc(CN2CC[C@H](c3nnc(C)o3)C2)cc1, the half-life was over 2 h.
O=C(c1ccoc1)N1CCC(Oc2cccc(F)c2)C1 (stereo not given) showed a half-life of 1.18 h.
COc1cccc(-c2cn3c(n2)N(C(=O)c2cccs2)CCC3)c1 was tested, and the half-life was over 2 h.
In the case of CCOc1cc(=O)n2c(c1C(=O)Nc1ccc(S(N)(=O)=O)cc1)CCCC2, the half-life is reported as over 2 h.
For O=C(c1cccnc1)N1CCC(Oc2cccc(F)c2)C1 (stereo not given), the half-life was over 2 h.
For COCCNC(=O)c1nc2sccn2c1-c1cccc(OC)c1, the half-life was over 2 h.
CC(=O)N1CCC(Cc2ccc(C(=O)O)cc2)CC1 showed a half-life of over 2 h.
CN(Cc1cccc(F)c1)C1CCOc2ccccc21 (stereo not given) was tested, and the half-life was 0.143 h.
In the case of COc1ccc(CN2CCC3(COc4ccccc4C(=O)N3)C2)cc1 (stereo not given), the half-life is reported as 0.578 h.
COc1ccc(OC2CN(Cc3ccc(C#N)cc3)C2)cc1 gave a half-life of over 2 h.
Compound COc1ccc(CN2CCC(N3CCNC3=O)CC2)cc1 has a half-life of over 2 h.
O=C(N1CCN([S+](=O)([O-])c2ccccc2)CC1)N1CC2CC(C1)[C@H]1CCCC(=O)N1C2 (stereo not given in full) gave a half-life of over 2 h.
In the case of N#Cc1cncc(N2CC3CCC(C2)N3CC(F)(F)F)c1, the half-life is reported as over 2 h.
Work on N#Cc1ccc(CN2CCC3(C2)NC(=O)c2ccccc2O3)cc1 (stereo not given) yielded a half-life of over 2 h.
C[C@@]1(O)CCN(Cc2ccc(C#N)cc2)C[C@H]1N1CCCC1 was tested, and the half-life was over 2 h.
For Fc1cccc(-c2noc(-c3nc(-c4ccncc4)no3)n2)c1, the half-life was 0.44 h.
O=c1c2nc(Nc3cccc(F)c3)ccc2ncn1-c1ccccc1 showed a half-life of 1.57 h.
O=C(NCCCn1ccnc1)c1ccc(-c2ncc3cnc(-c4cccc(F)c4)cn23)cc1 showed a half-life of 0.847 h.
With N#Cc1cccc(-c2c(C(=O)NC3CC3)nc3sccn23)c1 the half-life was 1.59 h.
In the case of Cc1noc(C)c1-c1cc(-c2cccc(F)c2)cn2cncc12, the half-life is reported as 1.5 h.
In the case of CC1(c2ccccc2)N(Cc2ccccc2)C(=O)OC12CCN(Cc1ccc(C(=O)O)cc1)CC2 (stereo not given), the half-life is reported as over 2 h.
N#Cc1cccc(-c2cn3c(n2)N(C(=O)c2ccoc2)CCC3)c1 was tested, and the half-life was over 2 h.
COc1ccc(CN2CC(Oc3ccc(F)c(F)c3)C2)cc1 was tested, and the half-life was 0.5 h.
Work on CN1CCC(OC2CCN(C(=O)c3cccc(F)c3)CC2)CC1 yielded a half-life of over 2 h.
Compound O=C(c1ccoc1)N1CCC(Oc2ccccc2)C1 (stereo not given) has a half-life of over 2 h.
For N#Cc1cccc(CN2CC[C@H](c3nnc(-c4ccco4)o3)C2)c1, the half-life was over 2 h.
In the case of COc1ccc(CN2CC[C@@](C)(O)[C@H](N3CCCC3)C2)cc1, the half-life is reported as over 2 h.
Work on COc1cccc(-c2c(C(=O)NC3CC3)nc3sccn23)c1 yielded a half-life of over 2 h.
Compound N#Cc1ccc(CN2CCC(N3Cc4cccn4C3=O)CC2)cc1 has a half-life of over 2 h.
Cc1cc2cc(-c3c(C)noc3C)nc(Nc3ccccc3)c2o1 showed a half-life of 0.593 h.
Work on N#Cc1cccc(CN2CC[C@H](c3nc4ccccc4[nH]3)C2)c1 yielded a half-life of over 2 h.
With Cc1ccccc1-c1[nH]nc2ncc(-c3ccccc3C#N)nc12 the half-life was over 2 h.
Compound COC1CCC12CCN(C(=O)c1ccc(C#N)cc1)CC2 (stereo not given) has a half-life of 1.32 h.
N#Cc1ccc(CN2CC(Oc3ccc(F)cc3F)C2)cc1 gave a half-life of 1.05 h.
Work on Cc1ccsc1-c1[nH]nc2ncc(-c3ccccc3)nc12 yielded a half-life of 0.308 h.
With N#Cc1cccc(CN2CCOC[C@H](O)C2)c1 the half-life was 0.852 h.
Cc1ccccc1-c1[nH]nc2ncc(-c3cccc(F)c3)nc12 was tested, and the half-life was 0.817 h.
Compound COCCNC(=O)c1nc2sccn2c1-c1cccc(C#N)c1 has a half-life of over 2 h.
